The numbers were not newly measured in US20180194836A1, “PREVENTION OF METASTASIS AND RECURRENCE AFTER PRIMARY CANCER TREATMENT” (ENCYT TECHNOLOGIES, INC., priority 2014, published 2018), which cites them from elsewhere.

Data set [1] concerns premetastatic niche formation. Particulars: disruption of niche formation; cited from earlier work.
For the next data set, the system named is colon cancer. Particulars: cited from earlier work.

Consider bevacizumab: antiangiogenic agent, for which, in data set [1], the metastatic colonization result is reported as “prevented metastatic colonization”. Also, in the data set with colon cancer (during the year on treatment, started 29-50 days post-operatively, with adjuvant chemotherapy), the relapse result is given as “delayed relapse”. Also, in the data set on colon cancer (versus chemotherapy-only group), the overall survival entry is reported as “no net benefit”.
